{"source": "patent EP3906926A1", "about": "“PROLINE HYDROXYLASE INHIBITORS FOR USE IN THE SKELETAL MUSCLE REGENERATION” (Policlinico San Donato S.p.A.- Istituto di Ricovero e Cura …, priority 2020, dated 2021)", "key": {"C57Bl/6N mice": {"test_system": "C57Bl/6N mice", "test": "Cardiotoxin-induced muscle regeneration in mice", "assay_type": "in vivo", "conditions": "single i.p. injection 10 mg/kg one day before CTX injury; 7 days after injury; laminin staining; vs saline", "description": "Experiments on muscle regeneration were conducted on 8-10 weeks old male C57Bl/6N mice, matched for weight, and purchased from Charles River Laboratories (Calco, Italy).\nCardiotoxin (CTX, from Naja mossambica, Latoxan, Portes-les-Valence, France, http://www.latoxan.net/) was dissolved in sterile saline to a final concentration of 10 µM. Mice were anesthetized by isofluorane inhalation and hindlimbs were shaved and cleaned with alcohol. Tibialis anterior (TA) muscles were injected with 45 µl of CTX with a 30-gauge needle, with 15 micro-injections of 3 µl CTX each in the mid-belly of the muscle to induce a homogeneous damage. The TA muscles of the contralateral hindlimbs were injected with a saline solution.\nDMSO, diluted at 2% in saline solution, was inoculated by i.p. injection to control mice. […] Mice were sacrificed seven days after cardiotoxin treatment.\nBriefly, TA muscles were frozen in liquid nitrogen-cooled isopentane and mounted in Killik embedding medium (Bio-optica). Transverse muscle sections (7 µm) were cryosectioned from the midbelly of each muscle. Sections were stained with Hematoxylin (Bio-optica)/Eosin (Merck) to reveal general muscle architecture. […] Images were acquired using Axio Lab.A1 (Zeiss) and quantified with ImageJ v1.49o software."}, "PHD2": {"test_system": "PHD2", "test": "qPCR of HIF-1α target gene PHD2", "assay_type": "cell-based, murine", "conditions": "IOX2 or FG-4592 treatment, vs untreated controls", "procedure": "(§1) Total RNA was isolated using ReliaPrep™ RNA Miniprep Systems (Promega), and reverse transcribed to cDNA using the iScript cDNA synthesis kit (BioRad), according to the Manufacturer's instructions. Real-Time Quantitative PCR was performed on 10 ng of cDNA template, 0.2 µM primers, and GoTaq® qPCR Master Mix (Promega) in 20 µl final volume using a StepOnePlus® Real-Time PCR System (Applied Biosystem). […] RPL13 was used as the housekeeping gene. The amplification program consisted in an initial denaturation at 95°C for 3 minutes, followed by 40 cycles of 5 seconds each at 95°C and 30 seconds at 57°C; WNT7a was amplified at 53°C. Relative quantification of target genes was performed in triplicate and calculated by the equation 2^-ΔΔCt.\nas §1, with “ReliaPrepTM” for “ReliaPrep™”, “2-ΔΔCt.” for “2^-ΔΔCt.”"}}}
{"smiles": "Cc1nc(C(=O)NCC(=O)O)c(O)c2ccc(Oc3ccccc3)cc12", "note": "[FG-4592, Roxadustat]", "values": [{"measurement": "enhancement of cross-sectional area (CSA) of regenerating myofibers", "setting": "C57Bl/6N mice", "result": 25, "unit": "%"}, {"measurement": "increase of minimal Feret diameter of regenerating myofibers", "setting": "C57Bl/6N mice", "result": 8, "unit": "%"}, {"measurement": "increase in the expression of PHD2", "setting": "PHD2", "result": 4.8, "unit": "fold"}]}
{"smiles": "O=C(O)CNC(=O)c1c(O)c2ccccc2n(Cc2ccccc2)c1=O", "note": "[IOX2]", "values": [{"measurement": "increase in the expression of PHD2", "setting": "PHD2", "result": 4.4, "unit": "fold"}]}
